Key:
μ opioid receptor [1] = molecular target: T1, μ opioid receptor (Homo sapiens, UniProt P35372); details: briefing documents to FDA advisory committee; cited from earlier work
Target sequence in this assay (P35372 whole entry, species assumed): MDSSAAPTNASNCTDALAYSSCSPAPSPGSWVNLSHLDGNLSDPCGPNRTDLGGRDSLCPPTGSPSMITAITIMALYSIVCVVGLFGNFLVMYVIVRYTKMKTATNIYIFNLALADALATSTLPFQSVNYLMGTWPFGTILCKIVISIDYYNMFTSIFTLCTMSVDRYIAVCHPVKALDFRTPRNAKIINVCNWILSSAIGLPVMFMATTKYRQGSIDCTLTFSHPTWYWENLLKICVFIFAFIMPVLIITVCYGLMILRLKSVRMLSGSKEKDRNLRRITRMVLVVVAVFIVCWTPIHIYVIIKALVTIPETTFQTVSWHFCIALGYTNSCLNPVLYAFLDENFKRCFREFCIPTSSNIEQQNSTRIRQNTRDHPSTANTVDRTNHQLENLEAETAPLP

[2] = room temperature, tap water, 1N HCl or 5% aqueous sodium bicarbonate
mice = details: mildly stressed mice
Description: In the study a group mice were subjected to mild stress, which normally induces diarrhea and gastrointestinal motility measured by number of fecal pellets excreted per hour.

human liver microsomes [3] = details: approximately 1 μM, human liver microsomes 1 mg protein/ml, up to 1 hour
Description: Incubations of the dimer (e.g., 1 μM) with human liver microsomes (e.g., 1 mg protein/mL) were carried out using a Tecan Liquid Handling System (Tecan), or equivalent, at 37±1° C. in 0.2-mL incubation mixtures (final volume) containing potassium phosphate buffer (50 mM, pH 7.4), MgCl2 (3 mM) and EDTA (1 mM, pH 7.4) with and without a cofactor, NADPH-generating system, at the final concentrations indicated in a 96-well plate format. The NADPH-generating system consisted of NADP (1 mM, pH 7.4), glucose-6-phosphate (5 mM, pH 7.4) and glucose-6-phosphate dehydrogenase (1 Unit/mL). […] Zero-time incubations served as 100% value to determine percent loss of substrate. Incubations were carried out in triplicate with an exception for zero-time samples (which were incubated in quadruplicate). Zero-cofactor (no NADPH) incubations were performed at zero-time and the longest time point. The samples were subjected to centrifugation (e.g., 920×g for 10 min at 10° C.) and the supernatant fractions analyzed by LC-MS/MS. Additional incubations were carried out with microsomes and a marker substrate (e.g., dextromethorphan to monitor substrate loss) as a positive control to determine if the test system was metabolically competent.
The incubation medium was assayed by LC/MS/MS for the formation of naloxone over time.

[4] = In vivo pharmacokinetic study, oral and IV; details: CD-1 mice, 10 mg/kg IV and oral gavage
Description: Animals used in these animal pharmacokinetic studies were CD-1 mice (about 35 gms, n=3 per time point). Drugs tested were buprenorphine and the buprenorphine dimer. Dose 10 mg/kg IV and oral gavage. Blood was collected at time 0, 30 min and 1, 2, 6 and 24 hours. Blood samples for the drug were analyzed after harvesting the plasma and by LC/MS/MS as follows:
Standard curve was prepared in mouse plasma spiked with either the test drugs (10-25000 nM). Plasma samples (50 μL) were extracted in 300 μL acetonitrile containing losartan or buprenorphine-d4 as internal standard. Extracts were centrifuged at 16000×g at 4° C. for 5 minutes. Supernatants (250 μL) were transferred to a new tube and dried under N2 at 45° C. for 1 hour. Samples were reconstituted with 100 μL of 30% acetonitrile, vortexed and centrifuged. Supernatants (90 μL) were transferred to LC vials and 10 μL is injected on LC/MS.

μ opioid receptor [5] = molecular target: T1, μ opioid receptor; experiment: Human μ opioid receptor binding assay (3H-Naloxone displacement); parameters: purchased Perkin Elmer RBHOMM400UA; host or cells: Chinese Hamster Ovary cells (membranes); details: FIG. 9
Target sequence in this assay (P35372 whole entry): as the sequence (P35372 whole entry, species assumed) above
Description: Membranes from Chinese Hamster Ovary cells expressing the human μ opioid receptor (Perkin Elmer #RBHOMM400UA) were homogenized in assay buffer (50 mM Tris, pH 7.5 with 5 mM MgCl2) using glass tissue grinder, Teflon pestle and Steadfast Stirrer (Fisher Scientific). The concentrates of the membranes were adjusted to 300 μg/mL in assay plate, a 96 well round bottom polypropylene plate. […] From the premix plate 50 μL was transferred to the assay plate containing the membranes, in duplicate. The assay plate was incubated for 2 h at room temperature. […] The contents of the assay plate were filtered through the filter plate using a Packard Filtermate Harvester, and washed 3 times with 0.9% saline at 4° C. […] A Topcount-NXT Microplate Scintillation Counter (Packard) was used to measure emitted energies in the range of 2.9 to 35 KeV. Results were compared to maximum binding, wells receiving no inhibitions.

[6] = Stress stability assay of the buprenorphine dimer (tap water, acid, base, heat); assay type: physicochemical; details: 1N HCl, 5% aqueous sodium bicarbonate, room temperature and 140° F., up to 30 minutes
Description: This study facilitated the understanding of the ease with which a potential abuser could cleave the dimer using household chemicals such as baking soda, acid or simple heating in water. Buprenorphine dimer stability was assessed at room temperature in untreated tap water and in presence of acid (1N HCl) or base (5% aqueous sodium bicarbonate).

[7] = molecular target: T2, human δ subtype 2 opioid receptor (Homo sapiens, UniProt P41143); experiment: Human δ opioid receptor binding assay (tritiated naltrindole displacement)
T2 construct: purchased Perkin Elmer RBHODM400UA; host or cells: Chinese Hamster Ovary cells (membranes)
T2 sequence (P41143 whole entry): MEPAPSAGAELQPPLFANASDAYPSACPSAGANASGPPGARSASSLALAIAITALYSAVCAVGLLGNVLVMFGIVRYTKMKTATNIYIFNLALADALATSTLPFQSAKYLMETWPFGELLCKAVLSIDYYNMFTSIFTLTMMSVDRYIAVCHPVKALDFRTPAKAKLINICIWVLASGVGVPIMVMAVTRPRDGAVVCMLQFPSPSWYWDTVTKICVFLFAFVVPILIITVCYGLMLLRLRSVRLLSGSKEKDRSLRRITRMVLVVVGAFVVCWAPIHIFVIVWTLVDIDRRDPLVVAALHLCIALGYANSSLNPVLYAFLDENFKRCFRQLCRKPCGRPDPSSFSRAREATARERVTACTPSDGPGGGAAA
Description: The assay was designed to test the ability of a compound to interfere with the binding of tritiated naltrindole to the human δ subtype 2 opioid receptor. Membranes from Chinese Hamster Ovary cells expressing the human δ subtype 2 opioid receptor (Perkin Elmer #RBHODM400UA) were homogenized in assay buffer (50 mM Tris, pH 7.5 with 5 mM MgCl2) using a glass tissue grinder, Teflon pestle and Steadfast Stirrer (Fisher Scientific). The concentration of membranes was adjusted to 100 μg/mL in the assay plate, a 96 well round bottom polypropylene plate. Compounds to be tested were solubilized in DMSO, 10 mM, then diluted in assay buffer to 6× the desired final concentration. The ligand, ^3H-natrindole (Perkin Elmer #NET-1065) was also diluted in assay buffer to 6 nM. Aliquots of ^3H-natrindole (50 μL) were transferred to the assay plate containing the membranes in duplicate. The assay plate was incubated for 30 minutes at room temperature. A GF/C 96 well filter plate (Perkin Elmer #6005174) was pretreated with 0.3% polyethylenimine for 30 min. The contents of the assay plate were filtered through the filter plate using a Packard Filtermate Harvester, and washed 3 times with 0.9% saline at 4° C. The filter plate was dried, the underside sealed, and a 30 μL MictoS=scint 20 (Packard #6013621) was added to each well. A Topcount-NXT Microplate Scintillation Counter (Packard) was used to measure emitted energies in the range of 2.9 to 35 KeV. Results are compared to maximum binding, wells receiving no inhibitors. Nonspecific binding was determined in the presence of 1 μM unlabelled Natrindole. […] Relative to the μ and κ opioid receptors, the dimer has poor affinity for the δ receptor.

human μ receptors [8] = molecular target: T3, human μ receptors (Homo sapiens, UniProt P35372); experiment: μ opioid receptor agonist functional assay: [35S]GTPγS binding in CHO-hMOR cell membranes; assay type: biochemical; details: FIG. 11
T3 construct: purchased Receptor Biology Inc. (Baltimore Md.); host or cells: CHO-hMOR cell membranes
T3 sequence (P35372 whole entry): as the sequence (P35372 whole entry, species assumed) above
Description: (§1) This example illustrates the ability of the buprenorphine dimer provided herein to stimulate the p-opioid receptor-mediated signaling. Briefly, CHO-hMOR cell membranes were purchased from Receptor Biology Inc. (Baltimore Md.). About 10 mg/ml of membrane protein was suspended in 10 mM TRIS-HCl pH 7.2, 2 mM EDTA, 10% sucrose, and the suspension kept on ice. One mL of membranes was added to 15 mL cold binding assay buffer containing 50 mM HEPES, pH 7.6, 5 mM MgCl2, 100 mM NaCl, 1 mM DTT and 1 mM EDTA. The membrane suspension was homogenized with a polytron and centrifuged at 3000 rpm for 10 min. The supernatant was then centrifuged at 18,000 rpm for 20 min. The pellet was resuspended in 10 mL assay buffer with a polytron. […]
(§2) The buprenorphine dimer was tested for function as an antagonist by evaluating its potential to inhibit agonist-stimulated GTPγS binding using D-Phe-Cys-Tyr-D-Trp-Orn-Thr-Pen-Thr-NH2 (CTOP) as the standard. Radioactivity was quantified on a Packard Top Count. The following parameters are calculated: % Stimulation=[(test compound cpm−non-specific cpm)/(basal cpm−non-specific cpm)]*100 % Inhibition=(% stimulation by 1 μM SNC80−% stimulation by 1 μM SNC80 in presence of test compound)*100/(% stimulation by 1 μM SNC80−100).
(§3) EC50 was calculated using GraphPad Prism.

male CD-1 mice [9] = experiment: Effect on post-inflammatory altered GI transit time (mustard oil); assay type: in vivo; details: 25 mg per kg oral, mustard oil treated mice
Description: This test was designed to measure the effect of test substance on gastrointestinal hypersensitivity following inflammation. Post-inflammatory altered GI transit was induced in male CD-1 mice by injecting freshly opened oil of mustard (95% pure allyl isothiocyanate, 0.5% in ethanol). The effect of stress on the post-inflammatory GI tract was tested 3-4 weeks after dosing. […] The effect of the test substance was measured after oral administration (intragastric gavage) and subjecting animals to environmental stress by housing them in cages (20 cm wide×20 cm deep×15 cm tall), equipped with a wire mesh bottom. During the test the animals were allowed access to water ad lib. The wire mesh bottomed tall cage creates a novel environment which induces stress in mice. The number of pellets excreted is determined on hourly to two-hourly basis.

human μ receptors [10] = molecular target: T3, human μ receptors; experiment: μ opioid receptor antagonist functional assay: [35S]GTPγS binding in CHO-hMOR cell membranes; assay type: biochemical; details: inhibition of agonist-stimulated GTPγS binding, FIG. 12
Description: as §1, §2, §3

male CD-1 mice [11] = experiment: Stress-induced fecal output; assay type: in vivo
Text: The animals used in the studies were male CD-1 mice, average weight about 30 to 35 g, with an average of 5 mice per dose group. The mice were generally housed in colony housing where they are housed 3 per cage in polycarbonate cages with access to food and water ad lib.
On the day of the experiment the mice were transported to the procedure room where they were individually housed in 20 cm wide×20 cm deep×15 cm tall cages, equipped with a wire mesh bottom after intragastric administration of test compounds. During the test the animals were allowed access to water only ad lib. The wire mesh bottomed tall cage creates a novel environment which induces stress in mice. The number of pellets excreted was determined on an hourly basis.

human liver microsomes [12] = experiment: Metabolic stability of buprenorphine dimer in human liver microsomes; details: 1 μM, human liver microsomes 1 mg protein/mL, 37 °C, with or without NADPH co-factor, up to 2 hours
Description: Incubations of the dimer (e.g., 1 μM) with human liver microsomes (e.g., 1 mg protein/mL) were carried out using a Tecan Liquid Handling System (Tecan), or equivalent, at 37±1° C. in 0.2-mL incubation mixtures (final volume) containing potassium phosphate buffer (50 mM, pH 7.4), MgCl2 (3 mM) and EDTA (1 mM, pH 7.4) with and without a cofactor, NADPH-generating system, at the final concentrations indicated in a 96-well plate format. The NADPH-generating system consisted of NADP (1 mM, pH 7.4), glucose-6-phosphate (5 mM, pH 7.4) and glucose-6-phosphate dehydrogenase (1 Unit/mL). The buprenorphine dimer was dissolved in aqueous methanolic solution (methanol 0.5% v/v, or less). […] Zero-time incubations served as 100% value to determine percent loss of substrate. […] The samples were subjected to centrifugation (e.g., 920×g for 10 min at 10° C.) and the supernatant fractions analyzed by LC-MS/MS. […]
The above samples were analyzed by an LC-MS/MS method. […] Results were determined by a comparison of peak ratios over the time course of the experiment (typically reported as “% Parent Remaining”).
Data were calculated with a LIMS (includes Galileo, Thermo Fisher Scientific Inc. and reporting tool, Crystal Reports, SAP), the spreadsheet computer program Microsoft Excel (Microsoft Corp.) or equivalent. […]

IBS-D patients = details: cited from earlier work

## C[N@+]1(CC2CC2)CC[C@]23c4c5ccc(O)c4O[C@H]2C(=O)CC[C@@]3(O)[C@H]1C5 [Methylnaltrexone Bromide]
μ opioid receptor [1]
  Ki: 42 nM

## C=CCN1CC[C@]23c4c5ccc(OCCOc6ccc7c8c6O[C@H]6C(=O)CC[C@@]9(O)[C@@H](C7)N(CC=C)CC[C@]869)c4O[C@H]2C(=O)CC[C@@]3(O)[C@H]1C5 [naloxone dimer]
[2]
  stability / degradation to naloxone: does not appreciably degrade to naloxone
mice; comparable to control by hour 3 or later
  reversal of loperamide-induced constipation (fecal pellets excreted per hour): reversed the constipating effects
Human liver microsomes [3]
  formation of naloxone over time: no evidence of formation naloxone over time

## CO[C@]12CC[C@@]3(C[C@@H]1[C@](C)(O)C(C)(C)C)[C@H]1Cc4ccc(O)c5c4[C@@]3(CCN1CC1CC1)[C@H]2O5 [buprenorphine, Buprenorphine, reference compound]
[4]
  absolute bioavailability (ratio of the area under the concentration curve after oral and IV dose): about 30%

## CO[C@]12CC[C@@]3(C[C@@H]1[C@](C)(O)C(C)(C)C)[C@H]1Cc4ccc(OCCOc5ccc6c7c5O[C@H]5[C@@]8(OC)CC[C@@]9(C[C@@H]8[C@](C)(O)C(C)(C)C)[C@@H](C6)N(CC6CC6)CC[C@]759)c5c4[C@@]3(CCN1CC1CC1)[C@H]2O5 [buprenorphine dimer]
μ opioid receptor [5]
  affinity for the opioid μ receptor: significant affinity
[6]
  stability / degradation to buprenorphine: remained stable and did not degrade to release buprenorphine
[7]
  IC50: 7.6 nM
  Ki: 2.87 nM
  affinity for the δ receptor relative to the μ and κ opioid receptors: poor affinity
Human μ receptors [8]
  μ agonist function: potent μ agonist
Male CD-1 mice [9]
  gastrointestinal motility as measured by fecal output: significantly decreases gastrointestinal motility
Male CD-1 mice [9]; 2 hours
  gastrointestinal motility as measured by fecal output at 2 hours: continues to inhibit gastrointestinal motility with statistically significant results
Human μ receptors [10]
  μ antagonist function: does not function as a μ-antagonist
Male CD-1 mice [11]; FIG. 15
  dose dependence of fecal output: decreases with dose
Male CD-1 mice [11]; oral, 25 and 50 mg per kg, stressed male CD-1 mice
  fecal output versus placebo (vehicle): significantly reduced the fecal output
Human liver microsomes [12]
  stability in presence of microsomal enzymes (% Parent Remaining): relatively stable
[4]
  absolute bioavailability (ratio of the area under the concentration curve after oral and IV dose): ≤ 1%

## COc1ccc(CN(C(=O)[C@@H](N)Cc2c(C)cc(C(N)=O)cc2C)[C@@H](C)c2ncc(-c3ccccc3)[nH]2)cc1C(=O)O [Eluxadoline]
IBS-D patients; Phase II trials
  pancreatitis cases: several cases of pancreatitis
IBS-D patients; Phase III testing, IBS-D
  Phase III efficacy endpoints: met primary endpoints of improvement in stool consistency and reduction of abdominal pain

## CN(C)C(=O)C(CCN1CCC(O)(c2ccc(Cl)cc2)CC1)(c1ccccc1)c1ccccc1 [loperamide, reference compound]
mice
  number of pellets expelled versus control (vehicle) animals: significantly less

Reference: patent US9309256B2, “Pharmaceutically active dimers linked through phenolic hydroxyl groups” (OrphoMed LLC, priority 2014, dated 2016)
